Assay results: patent publication US20260256792A1, “TREATMENT OF CHRONIC SPONTANEOUS URTICARIA BY ADMINISTERING (R)-2-[3-[4-AMINO-3-(2-FLUORO-4-PHENOXY-PHENYL)PYRAZOLO[3,4-D]PYRIMIDIN-1-YL]PIPERIDINE-1-CARBONYL]-4-METHYL-4-[4-(OXETAN-3-YL)PIPERAZIN-1-YL]PENT-2-ENENITRILE” (priority 2023, published 2026)

System: moderate-to-severe chronic spontaneous urticaria (CSU)
Test: Phase 2 CSU study: urticaria activity score over 7 days (UAS7)
Assay type: in vivo, human
Design: key to UAS7 Median / UAS7 Change from baseline Median / UAS7 change from baseline, Q1 / UAS7 change from baseline, Q3 / UAS7 change from baseline, Max / UAS7 Change from baseline LS Mean (SE): UAS7 points; daily UAS score ranges 0–6 points/day, over 7 days
Source text: The study comprises a 12 week, randomized, double-blind, placebo-controlled, multi-center, dose-ranging efficacy and safety phase, followed by a 40 week open label extension (OLE) phase (see FIG. 1). The study consists of three phases and an optional OLE phase. […] Clinically, CSU is characterized by the spontaneous and recurrent appearance of pruritic hives. The proposed primary endpoints were the UAS7 at Week 12 in EU and EU reference countries and the ISS7 in the US. Regardless of where a participant was from, all assessments were the same. The UAS7 score is a composite score containing both the HSS7 and the ISS7. This allowed a global assessment of the two key components of urticaria: hives and itch. […] The UAS is a validated PRO measure. […] The daily UAS scores range from 0 to 6 point/day. […] Patients were to complete the UAS using the e-diary. […] The following secondary endpoints were to be analyzed using the same approach as for the primary endpoint: • Change from baseline in UAS7 at Week 4 • Change from baseline in UAS7 at Week 12 (for US and US reference countries) • Change from baseline in ISS7 at Week 12 (except US and US reference countries) • Change from baseline in HSS7 at Week 12 The following responder secondary endpoints were to be analyzed using the Cochran-Mantel-Haenszel test adjusted by region: • Proportion of participants with UAS7<6 at Week 12 • Proportion of participants with UAS7=0 at Week 12 Participants who received selected prohibited medications and/or rescue medications were to be considered as non-responders for time points after the medication usage. For other participants, all available data including those collected during the off-treatment period were to be used to determine the responder/non-responder status. Missing data were to be considered as non-responders.

[1] = Week 4, 400 mg TID, omalizumab-naive participants
[2] = Week 5, 400 mg BID, ITT population
[3] = Week 5, 400 mg BID, Omalizumab-Naïve
[4] = Week 5, 400 mg BID, Prior Omalizumab Use
[5] = Week 5, 400 mg BID, omalizumab-naive participants
[6] = Week 5, 400 mg QPM, ITT population
[7] = Week 5, 400 mg QPM, Omalizumab-Naïve
[8] = Week 5, 400 mg QPM, Prior Omalizumab Use
[9] = Week 5, 400 mg QPM, omalizumab-naive participants
[10] = Week 5, 400 mg TID, ITT population
[11] = Week 5, 400 mg TID, Omalizumab-Naïve
[12] = Week 5, 400 mg TID, Prior Omalizumab Use
[13] = Week 5, 400 mg TID, omalizumab-naive participants

## CC(C)(C=C(C#N)C(=O)N1CCC[C@@H](n2nc(-c3ccc(Oc4ccccc4)cc3F)c3c(N)ncnc32)C1)N1CCN(C2COC2)CC1 [rilzabrutinib, (R)-2-[3-[4-amino-3-(2-fluoro-4-phenoxy-phenyl)pyrazolo[3,4-d]pyrimidin-1-yl]piperidine-1-carbonyl]-4-methyl-4-[4-(oxetan-3-yl)piperazin-1-yl]pent-2-enenitrile]
Week 4, 400 mg TID, Prior Omalizumab Use
  UAS7 Percent change from baseline Median: −68.48%
[1]
  Non-responder, UAS7 reduction from baseline of 10 points or more: 11 (31.4) n (%)
  OR for rilzabrutinib vs. placebo, UAS7 reduction of 10 points or more: 3.855
  RRD (%) for rilzabrutinib vs. placebo, UAS7 reduction of 10 points or more: 31.2 %
  Responder, UAS7 reduction from baseline of 10 points or more: 24 (68.6) n (%)
[2]
  Non-responder, UAS7 reduction from baseline of 10 points or more: 19 (46.3) n (%)
  OR for rilzabrutinib vs. placebo, UAS7 reduction of 10 points or more: 1.238
  RRD (%) for rilzabrutinib vs. placebo, UAS7 reduction of 10 points or more: 5.2 %
  Responder, UAS7 reduction from baseline of 10 points or more: 22 (53.7) n (%)
[3]
  UAS7 Change from baseline Mean (SD): −12.56 (11.55)
  UAS7 Change from baseline Median: −12.67
  UAS7 Mean (SD): 17.22 (13.36)
  UAS7 Median: 16.50
  UAS7 Percent change from baseline Mean (SD): −44.07 (39.75) %
  UAS7 Percent change from baseline Median: −40.89%
[4]
  UAS7 Change from baseline Mean (SD): −25.00 (18.42)
  UAS7 Change from baseline Median: −29.00
  UAS7 Mean (SD): 9.75 (16.94)
  UAS7 Median: 2.00
  UAS7 Percent change from baseline Mean (SD): −71.30 (48.04) %
  UAS7 Percent change from baseline Median: −92.59%
[5]
  Non-responder, UAS7 reduction from baseline of 10 points or more: 16 (45.7) n (%)
  OR for rilzabrutinib vs. placebo, UAS7 reduction of 10 points or more: 1.329
  RRD (%) for rilzabrutinib vs. placebo, UAS7 reduction of 10 points or more: 7.0 %
  Responder, UAS7 reduction from baseline of 10 points or more: 19 (54.3) n (%)
[6]
  Non-responder, UAS7 reduction from baseline of 10 points or more: 21 (55.3) n (%)
  OR for rilzabrutinib vs. placebo, UAS7 reduction of 10 points or more: 0.950
  RRD (%) for rilzabrutinib vs. placebo, UAS7 reduction of 10 points or more: −1.3 %
  Responder, UAS7 reduction from baseline of 10 points or more: 17 (44.7) n (%)
[7]
  UAS7 Change from baseline Mean (SD): −10.65 (9.52)
  UAS7 Change from baseline Median: −8.50
  UAS7 Mean (SD): 20.63 (9.18)
  UAS7 Median: 18.63
  UAS7 Percent change from baseline Mean (SD): −32.46 (26.63) %
  UAS7 Percent change from baseline Median: −27.86%
[8]
  UAS7 Change from baseline Mean (SD): −22.00 (NC)
  UAS7 Change from baseline Median: −22.00
  UAS7 Mean (SD): 19.00 (NC)
  UAS7 Median: 19.00
  UAS7 Percent change from baseline Mean (SD): −53.66 (NC) %
  UAS7 Percent change from baseline Median: −53.66%
[9]
  Non-responder, UAS7 reduction from baseline of 10 points or more: 21 (56.8) n (%)
  OR for rilzabrutinib vs. placebo, UAS7 reduction of 10 points or more: 0.877
  RRD (%) for rilzabrutinib vs. placebo, UAS7 reduction of 10 points or more: −3.4 %
  Responder, UAS7 reduction from baseline of 10 points or more: 16 (43.2) n (%)
[10]
  Non-responder, UAS7 reduction from baseline of 10 points or more: 12 (29.3) n (%)
  OR for rilzabrutinib vs. placebo, UAS7 reduction of 10 points or more: 2.703
  RRD (%) for rilzabrutinib vs. placebo, UAS7 reduction of 10 points or more: 23.5 %
  Responder, UAS7 reduction from baseline of 10 points or more: 29 (70.7) n (%)
[11]
  UAS7 Change from baseline Mean (SD): −16.74 (11.67)
  UAS7 Change from baseline Median: −15.17
  UAS7 Mean (SD): 13.41 (10.60)
  UAS7 Median: 14.00
  UAS7 Percent change from baseline Mean (SD): −54.42 (33.80) %
  UAS7 Percent change from baseline Median: −50.00%
[12]
  UAS7 Change from baseline Mean (SD): −24.11 (14.81)
  UAS7 Change from baseline Median: −20.50
  UAS7 Mean (SD): 8.92 (10.94)
  UAS7 Median: 5.50
  UAS7 Percent change from baseline Mean (SD): −70.71 (27.72) %
  UAS7 Percent change from baseline Median: −73.90%
[13]
  Non-responder, UAS7 reduction from baseline of 10 points or more: 11 (31.4) n (%)
  OR for rilzabrutinib vs. placebo, UAS7 reduction of 10 points or more: 2.512
  RRD (%) for rilzabrutinib vs. placebo, UAS7 reduction of 10 points or more: 22.4 %
  Responder, UAS7 reduction from baseline of 10 points or more: 24 (68.6) n (%)
Week 6, 400 mg BID, ITT population
  Non-responder, UAS7 reduction from baseline of 10 points or more: 20 (48.8) n (%)
